Test results from paper PMC13588620, “Linear antibody epitope prediction using AlphaFold2” (eLife, 2026).

system: mBG17 binding to SARS-CoV-2 nucleocapsid protein; test: Peptide competition ELISA with overlapping nucleocapsid peptides; parameters: species or system mouse; conditions: 40 μg (approximately 30 nMol) peptide incubated with 40 μl mBG17 for 1 h at room temperature, absorbance at 450 nm, n=3, percentage of binding from no-peptide control

Sequence | competition of mBG17 binding to the SARS-CoV-2 nucleocapsid protein in the ELISA
DDFSKQLQQS [a.a. 401–410] | almost complete competition
PAADLDDFSK [a.a. 296–405, synthetic 10 a.a. peptide of SARS-CoV-2 nucleocapsid protein overlapping a.a; 401–410 at the N-terminus] | neither was able to compete
QLQQSMSSAD [a.a. 406–415, synthetic 10 a.a. peptide of SARS-CoV-2 nucleocapsid protein] | neither was able to compete
